Active and inactive are the calls of the source. The calls are words filed in the database; no cut-off is given here.
Legend:
[1] = biological target: T1, Peroxisome proliferator-activated receptor alpha (Homo sapiens, UniProt Q07869); assay: Agonist activity at human PPARalpha in U2OS cells by transactivation assay
T1 sequence (Q07869 whole entry): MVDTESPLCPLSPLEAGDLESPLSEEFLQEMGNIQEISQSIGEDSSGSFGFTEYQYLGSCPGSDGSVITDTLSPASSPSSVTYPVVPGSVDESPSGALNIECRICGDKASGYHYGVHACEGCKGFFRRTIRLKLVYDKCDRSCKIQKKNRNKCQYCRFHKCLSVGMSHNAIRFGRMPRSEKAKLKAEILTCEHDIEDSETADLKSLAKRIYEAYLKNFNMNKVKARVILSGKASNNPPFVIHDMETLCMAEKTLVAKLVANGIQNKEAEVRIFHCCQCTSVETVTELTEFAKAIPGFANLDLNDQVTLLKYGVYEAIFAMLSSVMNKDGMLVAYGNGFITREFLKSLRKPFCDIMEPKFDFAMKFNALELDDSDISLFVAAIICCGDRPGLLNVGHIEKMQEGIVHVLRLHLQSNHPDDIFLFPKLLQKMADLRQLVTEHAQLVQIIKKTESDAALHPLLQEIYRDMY

[2] = biological target: T2, Peroxisome proliferator-activated receptor gamma (Homo sapiens, UniProt P37231)
T2 sequence (P37231 whole entry): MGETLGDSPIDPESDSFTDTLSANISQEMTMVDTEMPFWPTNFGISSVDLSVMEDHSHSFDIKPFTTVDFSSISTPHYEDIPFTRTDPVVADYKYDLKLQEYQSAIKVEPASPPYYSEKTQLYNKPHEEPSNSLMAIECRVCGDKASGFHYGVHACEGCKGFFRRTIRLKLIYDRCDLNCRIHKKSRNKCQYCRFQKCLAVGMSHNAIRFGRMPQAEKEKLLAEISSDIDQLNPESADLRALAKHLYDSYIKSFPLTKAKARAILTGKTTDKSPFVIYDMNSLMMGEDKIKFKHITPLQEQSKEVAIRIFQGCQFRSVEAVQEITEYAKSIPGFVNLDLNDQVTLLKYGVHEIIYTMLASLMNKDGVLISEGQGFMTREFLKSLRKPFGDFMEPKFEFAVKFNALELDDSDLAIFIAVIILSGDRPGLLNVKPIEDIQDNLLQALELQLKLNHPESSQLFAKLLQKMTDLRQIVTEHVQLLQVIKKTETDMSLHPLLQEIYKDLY
Description: Agonist activity at human PPARgamma in U2OS cells by transactivation assay

[3] = biological target: T3, Peroxisome proliferator-activated receptor alpha (Homo sapiens) (UniProt Q07869); assay: Agonist activity at human PPARalpha in U2OS cells by transactivation assay relative to WY-14643; type: functional, cell-based
T3 sequence (whole entry): T1 sequence (Q07869 whole entry)

## COC(=O)C1Cc2ccc(OCCc3nc(-c4ccc(C)cc4)oc3C)cc2OC1=O (stereo unspecified)
[1]
  EC50: 0.91 µM
[2]
  EC50: 0.001 µM
[3]
  %max: 94%

## COC(=O)c1cc2ccc(OCCc3nc(-c4cccc(OC)c4)oc3C)cc2oc1=O
[1]
  EC50: 1.62 µM
[2]
  EC50: 0.35 µM
[3]
  %max: 100%

## COC(=O)C1Cc2ccc(OCCc3nc(-c4ccc(C(C)(C)C)cc4)oc3C)cc2OC1=O (stereo unspecified)
[1]
  EC50: 0.1 µM
[2]
  EC50: 0.25 µM
[3]
  %max: 26%

## COC(=O)c1cc2ccc(OCCc3nc(-c4cccc(C(F)(F)F)c4)oc3C)cc2oc1=O
[1]
  EC50: 1.2 µM
[2]
  EC50: 0.42 µM
[3]
  %max: 21%

## COC(=O)c1cc2ccc(OCCc3nc(-c4ccc(C)cc4)oc3C)cc2oc1=O
[1]
  EC50: 0.001 µM
[2]
  EC50: 0.001 µM
[3]
  %max: 65%

## COC(=O)c1cc2ccc(OCCc3nc(-c4cccc(C)c4)oc3C)cc2oc1=O
[1]; u2os
  EC50: Not Active
[2]
  EC50: 0.001 µM
[3]
  %max: inactive

## COC(=O)C1Cc2ccc(OCCc3nc(-c4ccc(-c5ccccc5)cc4)oc3C)cc2OC1=O (stereo unspecified)
[1]
  EC50: 0.91 µM
[2]
  EC50: 1.12 µM
[3]
  %max: 68%

## COC(=O)c1cc2ccc(OCCc3nc(-c4ccc(OC)cc4)oc3C)cc2oc1=O
[1]
  EC50: 5.25 µM
[2]
  EC50: 0.001 µM
[3]
  %max: 163%

## COC(=O)C1Cc2ccc(OCCc3nc(-c4cccc(C)c4)oc3C)cc2OC1=O (stereo unspecified)
[1]
  EC50: 1.55 µM
[2]
  EC50: 0.001 µM
[3]
  %max: 83%

## COC(=O)C1Cc2ccc(OCCc3nc(-c4ccccc4)oc3C)cc2OC1=O (stereo unspecified)
[1]
  EC50: 0.14 µM
[2]
  EC50: 0.13 µM
[3]
  %max: 42%

## COC(=O)C1Cc2ccc(OCCc3nc(-c4ccc(OC)cc4)oc3C)cc2OC1=O (stereo unspecified)
[1]
  EC50: 1.74 µM
[2]
  EC50: 0.001 µM
[3]
  %max: 96%

## Cc1cccc(Nc2cc(Cl)nc(SCC(=O)O)n2)c1C
[3]
  %max: 100%

## COC(=O)c1cc2ccc(OCCc3nc(-c4cccc(F)c4)oc3C)cc2oc1=O
[1]
  EC50: 1.29 µM
[2]
  EC50: 0.96 µM
[3]
  %max: 38%

## COC(=O)C1Cc2ccc(OCCc3nc(-c4cccc(OC)c4)oc3C)cc2OC1=O (stereo unspecified)
[1]
  EC50: 1.2 µM
[2]
  EC50: 0.1 µM
[3]
  %max: 23%

## COC(=O)c1cc2ccc(OCCc3nc(-c4ccc(F)cc4)oc3C)cc2oc1=O
[1]
  EC50: 0.07 µM
[2]
  EC50: 1.62 µM
[3]
  %max: 44%

## COC(=O)C1Cc2ccc(OCCc3nc(-c4cccc(F)c4)oc3C)cc2OC1=O (stereo unspecified)
[1]
  EC50: 0.72 µM
[2]
  EC50: 0.17 µM
[3]
  %max: 30%

## COC(=O)c1cc2ccc(OCCc3nc(-c4cccc([N+](=O)[O-])c4)oc3C)cc2oc1=O
[1]; u2os
  EC50: Not Active
[2]
  EC50: 3.55 µM
[3]
  %max: inactive

## COC(=O)C1Cc2ccc(OCCc3nc(-c4cccc(C(F)(F)F)c4)oc3C)cc2OC1=O (stereo unspecified)
[1]
  EC50: 0.17 µM
[2]
  EC50: 0.16 µM
[3]
  %max: 23%

## COC(=O)c1cc2ccc(OCCc3nc(-c4ccc(-c5ccccc5)cc4)oc3C)cc2oc1=O
[1]
  EC50: 1.23 µM
[2]
  EC50: 1.26 µM
[3]
  %max: 116%

## COC(=O)c1cc2ccc(OCCc3nc(-c4ccc(C(C)(C)C)cc4)oc3C)cc2oc1=O
[1]
  EC50: 2.29 µM
[2]
  EC50: 1.74 µM
[3]
  %max: 90%

## COC(=O)C1Cc2ccc(OCCc3nc(-c4ccc(F)cc4)oc3C)cc2OC1=O (stereo unspecified)
[1]
  EC50: 0.1 µM
[2]
  EC50: 0.001 µM
[3]
  %max: 98%
